From patent US10766894B2, “Aza-indazole compounds for use in tendon and/or ligament injuries” (NOVARTIS AG, priority 2016, dated 2020) come the findings set out here.

Broadly, the EC50 is the concentration needed to bring the measured effect to its halfway point. By IC50 is commonly meant the concentration that gives 50% inhibition.

Read-outs that look alike come from different tables or passages of the source.

A short description of series [1]: In-vivo release from microparticles in a rat model. From the text:
(§1) Test Compound A incorporated into the microparticles provides an initial release (burst) of about 5-10% of drug over a period of 1 to 2 days, followed by a steady state release of drug over a period of 21 days (FIG. 1). In-vivo the microparticles could extend the release of Test Compound A over 4 weeks in a rat model.

In series [2] the test system is mouse immortalized TT-D6 Scx-luciferase (ScxL) cell line; transcriptional activation of Scleraxis (Scx) gene. Nature of the series: SCX-LUC in vitro assay (scleraxis promoter luciferase reporter). It is filed as cell-based. Conditions: Mus musculus, 96 h. (In general: A reporter such as luciferase makes a cellular process visible.)
The nature of series [3]: Cumulative release from PLGA microparticle formulations in PBS buffer. Particulars: incorporated into PLGA microparticles, PBS buffer pH 7.4, 1% Tween 20. It is filed as physicochemical.
Text: In the current invention, the microparticles formulation contains a copolymer of DL-lactide and glycolide in a 50:50 molar ratio with an ester end group plus Test Compound A is used. The total amount of Test Compound A incorporated into the microparticles ranges from 2% to 10% (w/w). The microparticles are formulated to mean mass range in size from 5 to 25 microns. The population of microparticles is formulated to be delivered through a 22 gauges or higher needles (see Table A below). Organic solvent was used for preparation of microparticles were dichloromethane (DCM) and ethyl acetate (EA) either alone or in combination with methanol (MeOH) and/or dimethyl sulfoxide (DMSO) e.g., ratio of MeOH/DMSO from 5-15% in DCM or EA as primary solvent. Additional excipients may be added such as, but not limited to, carboxymethylcellulose sodium, mannitol and ploxamer to achieve isotonicity and promote syringeability.
as §1

The target of series [4] is recombinant human Jak1 (aa 866-1154) (Homo sapiens (Human), UniProt P23458). Nature of the series: Kinase panel, substrate peptide phosphorylation (Caliper mobility shift), JAK1. Format: biochemical. Conditions: 3 nM kinase, 45 uM ATP, 60 min at 30° C.
Chain of recombinant human Jak1 (aa 866-1154) (P23458 866-1154): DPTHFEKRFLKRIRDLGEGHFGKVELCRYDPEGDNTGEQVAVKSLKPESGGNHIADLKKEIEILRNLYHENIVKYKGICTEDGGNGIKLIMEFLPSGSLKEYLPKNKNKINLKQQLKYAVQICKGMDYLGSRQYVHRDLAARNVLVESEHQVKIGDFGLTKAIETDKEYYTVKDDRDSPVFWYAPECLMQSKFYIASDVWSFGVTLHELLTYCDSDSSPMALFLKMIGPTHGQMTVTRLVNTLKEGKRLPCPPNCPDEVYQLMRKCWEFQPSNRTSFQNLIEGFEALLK
Series [5] has as its system Scleraxis (Scx) gene expression in rat tail tendon fascicles. Nature of the series: Ex vivo assay, tendon fascicles, Scleraxis mRNA (qPCR). Conditions: 96 h. Format: cell-based, Sprague Dawley rat.
Series [6] concerns the target recombinant human Jak3 (aa811-1124) (Homo sapiens (Human), UniProt P52333). Nature of the series: Kinase panel, substrate peptide phosphorylation (Caliper mobility shift), JAK3. Format: biochemical.
Series [7] deals with collagen type 1 (Col1a2) gene expression in rat tail tendon fascicles. Nature of the series: Ex vivo assay, tendon fascicles, collagen type 1 mRNA (qPCR). Format: cell-based, Sprague Dawley rat. Conditions: 96 h. In general terms: Real-time PCR tracks product formation cycle by cycle.
Series [8] has as its target recombinant human Jak2 (aa808-1132) (Homo sapiens (Human), UniProt O60674). The experiment in a line: Kinase panel, substrate peptide phosphorylation (Caliper mobility shift), JAK2. It is filed as biochemical.
Series [9] has as its system Tenomodulin (Tnmd) gene expression in rat tail tendon fascicles. The experiment in a line: Ex vivo assay, tendon fascicles, Tenomodulin mRNA (qPCR). It is filed as cell-based, Sprague Dawley rat. Conditions: 96 h.
In series [10] the target is recombinant human Tyk2 (aa888-1187) (Homo sapiens (Human), UniProt P29597). The experiment in a line: Kinase panel, substrate peptide phosphorylation (Caliper mobility shift), TYK2. It is filed as biochemical. Particulars: 3 nM kinase, 45 uM ATP, 60 min at 30° C.
Chain of recombinant human Tyk2 (aa888-1187) (P29597 888-1187): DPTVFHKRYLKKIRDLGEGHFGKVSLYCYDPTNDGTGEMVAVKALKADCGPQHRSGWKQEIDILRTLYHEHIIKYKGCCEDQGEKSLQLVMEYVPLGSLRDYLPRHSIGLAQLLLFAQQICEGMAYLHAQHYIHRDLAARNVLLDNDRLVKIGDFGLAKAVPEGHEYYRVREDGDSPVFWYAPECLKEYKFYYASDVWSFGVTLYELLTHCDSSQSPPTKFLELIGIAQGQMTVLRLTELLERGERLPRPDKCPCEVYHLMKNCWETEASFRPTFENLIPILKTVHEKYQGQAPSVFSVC
The mark [11] stands for this setting: Examples table, TT-D6 Scx-luciferase cells, 1 ng/ml TGFβ1, four days, read-out: Scx-Luc (EC50 μM).
Where [12] appears, read: Rattus norvegicus, read-out: Ex vivo SCX (EC50 uM).
Setting [13] is: Rattus norvegicus, read-out: Ex vivo Col1a2 (EC50 uM).
The mark [14] stands for this setting: Rattus norvegicus, read-out: Ex vivo Tnmd (EC50 uM).
The mark [15] stands for this setting: Examples table, rat tail tendon fascicles, four days, delta-delta Ct, read-out: Ex vivo Scx (EC50 μM).
The mark [16] stands for this setting: Examples table, rat tail tendon fascicles, four days, delta-delta Ct, read-out: Ex vivo Col1a2 (EC50 μM).
The mark [17] stands for this setting: Examples table, rat tail tendon fascicles, four days, delta-delta Ct, read-out: Ex vivo Tnmd (EC50 μM).

Chain of recombinant human Jak2 (aa808-1132) (O60674 808-1132): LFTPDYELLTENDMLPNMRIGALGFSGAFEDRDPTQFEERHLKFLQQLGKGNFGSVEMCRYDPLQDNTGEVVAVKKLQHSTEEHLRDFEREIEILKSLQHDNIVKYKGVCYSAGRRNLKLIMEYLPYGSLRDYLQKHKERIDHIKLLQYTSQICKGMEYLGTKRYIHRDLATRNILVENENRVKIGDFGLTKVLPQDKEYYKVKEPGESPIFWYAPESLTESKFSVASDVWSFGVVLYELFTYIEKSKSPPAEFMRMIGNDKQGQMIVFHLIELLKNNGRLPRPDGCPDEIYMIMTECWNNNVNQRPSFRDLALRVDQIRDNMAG
Chain of recombinant human Jak3 (aa811-1124) (P52333 811-1124 limits assumed): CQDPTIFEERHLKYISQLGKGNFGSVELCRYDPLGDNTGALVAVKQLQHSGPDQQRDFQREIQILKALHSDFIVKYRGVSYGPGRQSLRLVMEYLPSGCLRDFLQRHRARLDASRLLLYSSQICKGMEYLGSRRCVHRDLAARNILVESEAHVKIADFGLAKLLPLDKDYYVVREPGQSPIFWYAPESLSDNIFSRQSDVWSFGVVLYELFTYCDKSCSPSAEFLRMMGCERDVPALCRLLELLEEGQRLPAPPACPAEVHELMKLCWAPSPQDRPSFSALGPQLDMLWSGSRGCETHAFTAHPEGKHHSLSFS

With `Cc1cc(S(=O)(=O)N[C@H]2C[C@](O)(C(F)(F)F)C2)ccc1-c1ccc2[nH]nc(N)c2n1` [Example 2, 4-(3-amino-1H-pyrazolo[4,3-b]pyridin-5-yl)-N-((1s,3s)-3-hydroxy-3-(trifluoromethyl)cyclobutyl)-3-methylbenzenesulfonamide], the extended release in-vivo in series [1] was determined as 4 weeks. Also, the EC50 in [2] (setting [11]) came out at 0.376 µM. For the same compound, the “period of steady state release of drug” value in series [3] (after initial burst) was found to be 21 days. Moreover, in [3] (over a period of 1 to 2 days), the “initial release (burst) of drug” value is 5-10%.

Consider `N#C[C@@H]1C[C@H](N2CCC2)CC[C@H]1n1cc(C(N)=O)c(Nc2ccc(C(F)(F)F)cc2)n1`, for which the IC50 worked out at 0.002 µM in series [4], 10 µM in series [6], 0.24 µM in [8] and 0.12 µM in series [10]. The figures for the EC50 in series [5] (setting [12]), in series [7] (setting [13]) and in [9] (setting [14]) were 5.63 µM, 3.65 µM and 5.76 µM, respectively.

For the compound `N#C[C@H]1C[C@H](O)CC[C@@H]1n1cc(C(N)=O)c(Nc2ccc(C(F)(F)F)cc2)n1` [reference compound], the concentration for half-maximal inhibition (IC50) in [4] was found to be 0.004 µM; in [6], 10 µM; in series [8] it was 0.15 µM; in series [10], 0.11 µM. Moreover, the EC50 in series [5] (setting [12]) came out at 5.65 µM; in [7] (setting [13]), 3.97 µM; in [2] (read-out: Scx-Luc (EC50 uM)), 2.06 µM; in [9] (setting [14]), 3.82 µM.

For the compound `O=C(Nc1nc2cccc(-c3ccc(CN4CCS(=O)(=O)CC4)cc3)n2n1)C1CC1` [reference compound], the EC50 in series [5] (setting [12]) was 5.34 µM; in series [7] (setting [13]), 5.01 µM; in series [2] (read-out: Scx-Luc (EC50 uM)), 4.32 µM; in series [9] (setting [14]) it was 6.93 µM.

Consider `Nc1n[nH]c2ccc(-c3ccc(S(=O)(=O)NCCO)cc3Cl)nc12` [Example 72, 4-(3-amino-1H-pyrazolo[4,3-b]pyridin-5-yl)-3-chloro-N-(2-hydroxyethyl)benzenesulfonamide], for which the half-maximal effective concentration (EC50) was 3.94 µM in series [5] (setting [15]), 3.28 µM in series [7] (setting [16]), 4.09 µM in series [2] (setting [11]) and 3.42 µM in series [9] (setting [17]).

Consider `Cc1cc(S(=O)(=O)N2CC(O)(C(F)(F)F)C2)ccc1-c1ccc2[nH]nc(N)c2n1` [Example 66, 1-((4-(3-amino-1H-pyrazolo[4,3-b]pyridin-5-yl)-3-methylphenyl)sulfonyl)-3-(trifluoromethyl)azetidin-3-ol], for which the EC50 in series [5] (setting [15]) came out at 0.89 µM; in [7] (setting [16]), 0.921 µM; in series [2] (setting [11]) it was 0.794 µM; in [9] (setting [17]) it was 0.719 µM.

For `Cc1cc(S(=O)(=O)Nc2ccccc2)ccc1-c1ccc2[nH]nc(N)c2n1` [Example 16, 4-(3-amino-1H-pyrazolo[4,3-b]pyridin-5-yl)-3-methyl-N-phenylbenzenesulfonamide], the EC50 in [5] (setting [15]) came out at 3.86 µM; in series [7] (setting [16]), 4.65 µM; in series [2] (setting [11]), 0.61 µM; in series [9] (setting [17]), 2.81 µM.

With `Nc1n[nH]c2ccc(-c3ccc(NS(=O)(=O)c4ccc5c(c4)OCO5)cc3Cl)nc12` [Example 11, N-(4-(3-amino-1H-pyrazolo[4,3-b]pyridin-5-yl)-3-chlorophenyl)benzo[d][1,3]dioxole-5-sulfonamide], the EC50 in [5] (setting [15]) stood at 3.05 µM; in [7] (setting [16]), 2.46 µM; in [2] (setting [11]), 0.801 µM; in series [9] (setting [17]) it was 0.841 µM.

As for `Nc1n[nH]c2ccc(-c3ccc(S(=O)(=O)Nc4ccccc4)cc3Cl)nc12` [Example 38, 4-(3-amino-1H-pyrazolo[4,3-b]pyridin-5-yl)-3-chloro-N-phenylbenzenesulfonamide], the EC50 stood at 0.188 µM in series [5] (setting [15]), 0.396 µM in series [7] (setting [16]), 0.61 µM in series [2] (setting [11]) and 1.89 µM in series [9] (setting [17]).

As for `Nc1n[nH]c2ccc(-c3ccc(S(=O)(=O)NC4CCS(=O)(=O)CC4)cc3Cl)nc12` [Example 50, 4-(3-amino-1H-pyrazolo[4,3-b]pyridin-5-yl)-3-chloro-N-(1,1-dioxidotetrahydro-2H-thiopyran-4-yl)benzenesulfonamide], the EC50 in [5] (setting [15]) is 2.33 µM; in series [7] (setting [16]), 6.37 µM; in series [2] (setting [11]) it was greater than 10 µM; in [9] (setting [17]), 6.3 µM.

Take `Nc1n[nH]c2ccc(-c3ccc(S(=O)(=O)N4CC5CC5C4)cc3Cl)nc12` (stereo not shown) [Example 63, 5-(4-(3-azabicyclo[3.1.0]hexan-3-ylsulfonyl)-2-chlorophenyl)-1H-pyrazolo[4,3-b]pyridin-3-amine]: the EC50 is 2.12 µM in series [5] (setting [15]), 3.34 µM in series [7] (setting [16]), 1.24 µM in [2] (setting [11]) and 4.6 µM in series [9] (setting [17]).

For the compound `N#CC[C@H](C1CCCC1)n1cc(-c2ncnc3[nH]ccc23)cn1` [reference compound], the EC50 in [5] (setting [12]) is 3.13 µM; in series [7] (setting [13]) it was 2.64 µM; in [2] (read-out: Scx-Luc (EC50 uM)) it was 0.12 µM; in series [9] (setting [14]), 0.74 µM.

For `N#C[C@H]1C[C@@H](N2CCC2)CC[C@@H]1n1cc(C(N)=O)c(Nc2ccc(C(F)(F)F)cc2)n1` [reference compound], the IC50 in series [4] came to 0.04 µM; in series [6] it was 10 µM; in [8], 2.7 µM; in series [10] it was 1.8 µM. The EC50 amounted to 1.16 µM in series [5] (setting [12]), 0.42 µM in series [7] (setting [13]), 2.05 µM in [2] (read-out: Scx-Luc (EC50 uM)) and 0.08 µM in [9] (setting [14]).

In the case of `CS(=O)(=O)C1CN(S(=O)(=O)c2ccc(-c3ccc4[nH]nc(N)c4n3)c(Cl)c2)C1` [Example 93, 5-(2-chloro-4-((3-(methylsulfonyl)azetidin-1-yl)sulfonyl)phenyl)-1H-pyrazolo[4,3-b]pyridin-3-amine], the EC50 was found to be 2.95 µM in series [5] (setting [15]), 1.76 µM in series [7] (setting [16]), 5.74 µM in [2] (setting [11]) and 3.52 µM in series [9] (setting [17]).
